Test results published in patent US20210100905A1, “APPLICATION OF COMPOUND OR TRADITIONAL CHINESE MEDICINE EXTRACT IN PREPARATION OF NUCLEIC ACID DELIVERY AGENT, AND RELATED PRODUCTS” (INSTITUTE OF BASIC MEDICAL SCIENCES CHINESE ACADEMY OF …, priority 2018, published 2021).

Experiments:
[1] = tested on: A549 cells; assay: Confocal fluorescence microscopy of nucleic acid delivered by lipid; type: cell-based, human; conditions: boiling method, 4 μl lipid, 6 hours co-incubation
Protocol: Experimental materials: A549 cells (purchased from the Cell Center of the Chinese Academy of Medical Sciences), PGY-sRNA-6-Cy3 (purchased from Ribobio Biotechnology Co., Ltd.), lipid No. 41, Zeiss LSM780 (purchased from Zeiss, Germany), Alexa Fluor® 488 phalloidin (purchased from Invitrogen, USA), DAPI (purchased from Invitrogen, USA), paraformaldehyde (purchased from sigma, USA).
(§1) Experimental methods: PGY-sRNA-6-FAM was dissolved in 100 μl water, mixed with 4 μl lipid, and prepared by the boiling method. Then the mixture was dropped into A549 cells, and after 6 hours of co-incubation, the samples were washed three times with PBS, fixed with 4% paraformaldehyde, washed three times with PBS, stained with Alexa Fluor® 488 phalloidin for 30 min, washed 3 times with PBS, and stained with DAPI for 5 min, washed with PBS, and then sealed.
as §1, with “method:” for “methods:”, “water, and” for “water,”, “by” for “by the”, “Then,” for “Then”, “PBS washed,” for “washed with PBS,”

[2] = tested on: A549 cell (human lung adenocarcinoma cell); assay: In vitro delivery of lipid nucleic acid mixture, RT-qPCR of intracellular small RNA; type: cell-based; conditions: for delivery effect relative to that of RNAiMAX (real-time PCR): double-stranded HJT-sRNA-m7; for delivery of HJT-sRNA-m7 double-stranded RNA into A549 cells (real-time PCR): single lipid prepared by boiling or reverse evaporation method, RNA 100 nM, FIGS. 76, 91, 96, 99, 104, 106, 107; for delivery of HJT-sRNA-m7 single-stranded RNA into A549 cells (real-time PCR): single lipid, FIGS. 78, 92, 103; for abundance of sRNA of different sequences in the cells (Taqman probe): FIG. 11A-C, sRNA 200 nM, 3 hours, compared with the control
Protocol: 3.1 NCI-N87 cell (gastric cancer cell), MRC-5 cell (lung fibroblast), A549 cell (lung cancer cell) were cultured to logarithmic growth phase, and then plated to a six-well plate at cell density of 1×10^6/2 mL medium/well; MRC-5 cell was cultured in Eagle's MEM medium (MEM, Gibco); A549 cell was cultured in Ham's F-12 medium (HyClone); NCI-N87 cell was cultured in RPMI-1640 medium (HyClone); followed by incubation overnight at 37° C., and the follow-up experiments were performed after the cells were attached to the walls.
3.3 After co-incubation with the small RNA for 3 hours, the cells were washed 2-3 times with PBS. The cells were harvested with TRIzol lysis buffer, and the total RNA was extracted. The abundance of small RNA that entered cells was detected by RT-qPCR, and the localization of RNA was detected by fluorescence in situ hybridization; protocols of each detection method were as follows:
1) The sRNA was reverse transcribed to cDNA: Reverse Transcription Kit (High-Capacity cDNA Reverse Transcription Kits, Applied Biosystems, cat. No. 4368813) was used to reverse transcribe sRNA into cDNA by stem-loop method, and the reverse transcription system was as follows: RNA template (150 ng/μl) 10 μl, 10×RT buffer, 2.0 μl, 25× dNTP Mix (100 mM) 0.8 μl, U6 RT stem-loop primer 2.0 μl, HJT-sRNA-RT-m7 stem-loop primer 2.0 μl, MultiScribe™ reverse transcriptase 1.0 μl, RNase inhibitor 1.0 μl, nuclease-free H2O 1.2 μl, loaded into a PCR reactor after brief centrifugation, the reaction conditions were as follows: (1) 25° C., 10 min; (2) 37° C., 120 min; (3) 85° C., 5 min; (4) 4° C., termination of the reaction. 20 μl RNase-free ddH2O was added to make up the final volume to 40 μl after the reaction. The stem-loop primer used in the reverse transcription process was synthesized by Beijing Tsingke Biotechnology Co., Ltd.
2) Quantitative PCR amplification reaction: the qPCR reaction system has a total volume of 10 μl, containing: 5 μL 2×SYBR Green Master Mix, 0.5 μl forward primer ([…]), 0.5 μl reverse primer (10 μM), 1 μl cDNA by reverse transcription, 3 RNase-free dH2O. LightCycler 480 fluorescence quantitative PCR instrument was used, and the PCR reaction conditions were: 95° C. for 5 min for pre-denaturation, followed by PCR amplification cycle: (1) 95° C., 10 s; (2) 55° C., 10 s; (3) 72° C. , 20 s; a total of 40 cycles; 40° C. for 10 s in the end to cool down. Both the forward and reverse primers of the amplification reaction were designed and synthesized by Beijing Tsingke Biotechnology Co., Ltd.
3) The relative expression level was calculated by 2-ΔCt method.
100 μl lipid in diethyl ether solution was prepared, and grouped according to the lipid numbers shown in Table 1 (the lipid concentrations are shown in the table below). To the lipid solution was added 20 μl nucleic acid solution (HJT sRNA or siRNA) at the volume ratio of 5:1, and sonicated for after 3 min. The diethyl ether was removed by evaporation at 55° C., and then 100 μl DEPC water was added for hydration to give nucleic acid lipid mixture.
100 μL of the nucleic acid solution (HJT sRNA or siRNA) was added to 2-5 μL of the lipid in chloroform (the concentration was shown in Table 1), mixed, and heated at 80-100° C. for 15-30 min to give nucleic acid lipid mixture.
3.1.1 MRC-5 cell (pulmonary embryonic fibroblast), A549 cell (human lung adenocarcinoma cell), Caco-2 cell (human colon adenocarcinoma cell) (purchased from the Cell Resource Center of the Institute of Basic Medical Sciences, Chinese Academy of Medical Sciences) were cultured to logarithmic growth phase, then plated into 12-well plates at a cell density of 6×10^5/1 mL medium/well; MRC-5 and Caco-2 cells were cultured in Eagle's MEM medium (MEM, Gibco); A549 cells were cultured in Ham's F-12 medium (HyClone); followed by incubation overnight at 37° C., and the follow-up experiments were performed after the cells were attached to the walls. […]

[3] = tested on: A549 cells; assay: Flow cytometry detection of the efficiency of nucleic acid delivery by lipid; type: cell-based, human; conditions: boiling method, 6 hours co-incubation
Protocol: Experimental materials: A549 cells (purchased from the Cell Center of the Chinese Academy of Medical Sciences), FAM-sRNA (purchased from Ribobio Biotechnology Co., Ltd.), lipid No. 41, Accuri® C6 instrument (purchased from BD, USA).
Experimental methods: PGY-sRNA-6-FAM was dissolved in 100 μl water, mixed with 4 μl lipid, and prepared by boiling method. Then the mixture was dropped into A549 cells, and after 6 hours of co-incubation, the samples were collected for detection as follows: firstly wash three times with PBS, then digest with trypsin for 3 minutes and remove trypsin, wash with PBS again and then blow down the cells. The detection was performed using Accuri® C6 instrument.
Experimental Method: PGY-sRNA-6-FAM was dissolved in 100 μl water, and mixed with 4 μl lipid, and prepared into lipid-sRNA mixture by boiling method. Then, the mixture was dropped into A549 cells, and after 6 hours of co-incubation, the samples were collected and washed three times with PBS, then digested with trypsin into single cells, washed with re-suspended with PBS and then blown down for Accuri® C6 instrument detection.
Experimental Method: FAM-sRNA was dissolved in 100 μl water, and mixed with 4 μl lipid, prepared by boiling method. Then, the lipid-sRNA mixture was dropped into A549 cells, and after 6 hours of co-incubation, the samples were collected and washed three times with PBS, then digested into single cells with trypsin, re-suspended with PBS and then blown down for Accuri® C6 instrument detection.

Structure (SMILES) | entry of PGY-sRNA-6-Cy3 observed under confocal microscopy [1] | delivery effect relative to that of RNAiMAX (real-time PCR) ([2]; boiling method) | delivery effect relative to that of RNAiMAX (real-time PCR) ([2]; reverse evaporation method) | delivery of HJT-sRNA-m7 double-stranded RNA into A549 cells (real-time PCR) [2] | delivery of HJT-sRNA-m7 single-stranded RNA into A549 cells (real-time PCR) ([2]; boiling method) | efficiency in delivering PGY-sRNA-6 double-stranded RNA (flow cytometry) ([3]; 4 μl lipid) | efficiency in delivering PGY-sRNA-6 single-stranded RNA (flow cytometry) ([3]; 4 μl lipid) | abundance of sRNA of different sequences in the cells (Taqman probe) ([2]; reverse evaporation method) | efficiency of PGY-sRNA-6 single-stranded RNA delivery relative to positive control RNAiMAX (flow cytometry) [3]
CCCCCCCCCCCCCCCCCCC[C@@H](O)[C@@H](N)CO [No. 41, Sphinganine (d22:0)] | could effectively deliver double-stranded nucleic acid into A549 cells | about twice | significantly higher than that of RNAiMAX | delivered HJT-sRNA-m7 double-stranded RNA into A549 cells | delivered HJT-sRNA-m7 single-stranded RNA into A549 and MRC-5 cells | 96.7% | 94.1% |  | 
CCCCC/C=C\C/C=C\CCCCCCCC(=O)O[C@H](COC(=O)CCCCCCCCCCCCCCCCC)COP(=O)([O-])OCC[N+](C)(C)C [No. 11, trimethyl(2-{[(2R)-2-[(9Z, 12Z)-octadeca-9,12-dienoyloxy]-3-(octadecanoyloxy)propyl-phosphonato]oxy}ethyl) azanium] |  |  |  |  |  |  |  | could effectively facilitate nucleic acid molecules of different sequences entry into various cells | 
CCCCC/C=C\C/C=C\CCCCCCCC(=O)O[C@H](COC(=O)CCCCCCCCCCCCCCC)COP(=O)([O-])OCC[N+](C)(C)C [No. 12, (2-{[(2R)-3-(hexadecanoyloxy)-2-[(9Z,12Z)-octadeca-9,12-dienoyloxy]propylphosphonato]oxy}ethyl) trimethylazanium] |  |  |  |  |  |  |  | could effectively facilitate nucleic acid molecules of different sequences entry into various cells | 
CCCCCCCC/C=C\CCCCCCCCCCCC(=O)O[C@H](COC(=O)CCCCCCCCCCCCCCC)COP(=O)(O)OCCN [No. 40, (2-aminoethoxy) [(2R)-2-[(13Z)-docos-13-enoyloxy]-3-(hexadecanoyloxy)propoxy] phosphinic acid] | could effectively deliver single-stranded RNA into A549 cells |  | ½ | delivered double-stranded RNA into A549 cells |  |  |  |  | 
CCCCCC/C=C\CCCCCCCC(=O)O[C@H](COC(=O)CCCCCCCCCCCCCCC)COP(=O)(O)OCCN [No. 38, (2-aminoethoxy) [(2R)-2-[(9Z)-hexadec-9-enoyloxy]-3-(hexadecanoyloxy)propoxy] phosphinic acid] | could effectively deliver double-stranded nucleic acid into A549 cells |  |  | delivered double-stranded RNA into A549 and MRC-5 cells | the efficiency of delivery was much higher than that of RNAiMAX |  | 72.5% |  | close to that of the positive control RNAiMAX
CCCCCCCC/C=C\CCCCCCCCCCCCCC(=O)O[C@H](COC(=O)CCCCCCCCCCCCCC)COP(=O)(O)OCCN [No. 64, 1-pentadecanoyl-2-nervonoyl-sn-glycero-3-phospho-ethanolamine] | could effectively deliver single-stranded RNA into A549 cells | about 3 times that of RNAiMAX |  | delivered HJT-sRNA-m7 double-stranded RNA into A549 cells |  |  |  |  | ½
